In patent US20240140931A1, “TRICYCLIC COMPOUNDS AND USES THEREOF” (HUTCHMED LIMITED, priority 2021, published 2024):

Columns and labels:
[1] = biological target: Human full-length SHP2 recombinant protein (Homo sapiens (Human), UniProt Q06124); experiment: Assay of full-length SHP2 phosphatase activity; format: biochemical; details: DiFMUP substrate, with activating peptide
Protocol: Example 2 Assay of Full-Length SHP2 Phosphatase Activity
1. Reagents and Materials • Human full-length SHP2 recombinant protein: BPS Bioscience, Cat #79018; • SHP2 substrate DiFMUP (1 mM): BPS Bioscience, Cat #79769; • SHP2 activating peptide (100 μM): BPS Bioscience, Cat #79319-2; • DTT: Merck, Cat #DTT-RO; • 384-well plate: Corning, Cat #3575; • 96-well plate: Thermo Fisher Scientific, Cat #249952; • Instrument: EnVision 2104, PerkinElmer.
2. Preparation of Reaction Solutions
The test compound was dissolved in DMSO and diluted with DMSO to 100.0 μM, and the compound was further 3-fold diluted with DMSO to: 100.00, 33.33, 11.11, 3.70, 1.23, 0.41, 0.14 and 0.05 μM.
3. Experimental Steps • To the corresponding wells of the 384-well plate was added 2.5 μL of 4× test compound or 2.5 μL of 4% DMSO solution, and centrifugation was carried out at 1000 rpm for 30 seconds. • To the test compound well and positive control well was added 2.5 μL of 4× mixed solution of SHP2 enzyme/activating peptide while to the negative control well was added 2.5 μL of 1× enzymatic reaction buffer; centrifugation was carried out at 1000 rpm for 30 seconds and incubation was carried out at room temperature for 30 minutes. • To each well was added 5 μL of 2×DiFMUP substrate to initiate the enzymatic reaction, then the plate was transiently oscillated and centrifuged at 1000 rpm for 30 seconds, and the 384-well plate was sealed with a sealing membrane and incubated at 25° C. on a low-speed shaker (100 rpm) in the dark for 60 minutes. • The fluorescence value (relative fluorescence units, RFU) of each well was detected on EnVision2104 (excitation: 355 nm, emission: 460 nm).
wherein • the RFU of compound well refers to the fluorescence reading at 460 nm of the well containing the test compounds; • the RFU of negative control well refers to the fluorescence reading at 460 nm of the background well containing 1% DMSO and the enzymatic reaction buffer; • the RFU of positive control well refers to the fluorescence reading at 460 nm of the well containing 1% DMSO and the mixed solution of SHP2 enzyme/activating peptide.
(§1) IC50 values were calculated following formula 205: y=A+((B−A)/(1+((C/X)^D))), by using the XL-Fit 5.0 software.

[2] = tested on: pERK1/2 (Thr202/Tyr204) in Miapaca2 cells; experiment: Assay of intracellular pERK1/2 (Thr202/Tyr204) phosphorylation; format: cell-based
Protocol: Example 3 Assay of Intracellular pERK1/2 (Thr202/Tyr204) Phosphorylation
1. Reagents and Materials • pERK1/2 (Thr202/Tyr204) HTRF kit: Cisbio, Cat #64ERKPEH; • Cell line: Miapaca2, ATCC, CRL-1420; • OptiPlate™-384-well plate: PerkinElmer, Cat #6007299; • 96-well plate: Corning, Cat #353072; • Instrument: EnVision2104, PerkinElmer.
2. Preparation of Reaction Solutions • The test compound was dissolved in DMSO and diluted with DMSO to 600.0 μM, and the compound was further 3-fold diluted with DMSO to: 600.0, 200.0, 66.7, 22.2, 7.4, 2.5, 0.82 and 0.27 μM. Then 10 μL of the compound at different dilution concentrations was added to 190 μL of a DMEM medium to prepare a 10× test compound, wherein DMSO was at the concentration of 5% (DMSO was at the final concentration of 0.5%). • 1× cell lysis buffer: 4× cell lysis stock solution (provided by the kit) was diluted 4-fold with deionized water, and then 1% 100× blocking stock solution (provided by the kit) was added thereto. • pERK1/2 detection solution (prepared just before use): the pERK1/2 d2 antibody (provided by the kit) and pERK1/2 Cryptate antibody (provided by the kit) were diluted with the detection solution (provided by the kit) at a ratio of 1:1:38.
3. Experimental Steps • Miapaca2 cells were inoculated into a 96-well plate at a density of 10000 cells/well at 90 μL/well and cultured in a cell incubator at 5% CO2 and 37° C. overnight. • 10 μL of 10× test compound was added to the 90 μL cell culture 96-well plate; to the cell positive control well was added 10 μL of 5% DMSO culture solution; and the plate was cultured in a cell incubator at 5% CO2 and 37° C. for 2 hours. • The medium in the 96-well plate was removed; 50 μL of 1× cell lysis buffer was added to each well; the plate was placed in a microplate shaker; and lysis under shaking was carried out at 900 rpm at room temperature for 1 hour. • 16 μL of the lysis buffer in the 96-well plate was taken and transferred to a 384-well plate, and centrifugation was carried out at 1000 rpm for 30 seconds; then 4 μL of pERK1/2 detection solution was added to each well and centrifugation was carried out at 1000 rpm for 30 seconds; and the 384-well plate was sealed with a sealing membrane and incubated at 25° C. on a low-speed shaker (100 rpm) in the dark for 2 hours. • The fluorescence value (relative fluorescence units, RFU) of each well was detected on EnVision2104 (emission 1: 665 nm, emission 2: 615 nm).
wherein • the fluorescence ratio of compound well refers to the fluorescence ratio of the well containing the test compounds; • the fluorescence ratio of negative control well refers to the fluorescence ratio of the background containing the cell lysis buffer and no Miapaca2 cells; • the fluorescence ratio of positive control well refers to the fluorescence ratio of the well containing 0.5% DMSO and Miapaca2 cells.
as §1

[3] = Homo sapiens, MIA PaCa-2, 2 h, pERK1/2 (Thr202/Tyr204) HTRF
[4] = Homo sapiens, MIA PaCa-2, pERK1/2 (Thr202/Tyr204) HTRF, 2 hours
[5] = pERK1/2 (Thr202/Tyr204) HTRF, 2 hours

Chain of Human full-length SHP2 recombinant protein (Q06124 whole entry): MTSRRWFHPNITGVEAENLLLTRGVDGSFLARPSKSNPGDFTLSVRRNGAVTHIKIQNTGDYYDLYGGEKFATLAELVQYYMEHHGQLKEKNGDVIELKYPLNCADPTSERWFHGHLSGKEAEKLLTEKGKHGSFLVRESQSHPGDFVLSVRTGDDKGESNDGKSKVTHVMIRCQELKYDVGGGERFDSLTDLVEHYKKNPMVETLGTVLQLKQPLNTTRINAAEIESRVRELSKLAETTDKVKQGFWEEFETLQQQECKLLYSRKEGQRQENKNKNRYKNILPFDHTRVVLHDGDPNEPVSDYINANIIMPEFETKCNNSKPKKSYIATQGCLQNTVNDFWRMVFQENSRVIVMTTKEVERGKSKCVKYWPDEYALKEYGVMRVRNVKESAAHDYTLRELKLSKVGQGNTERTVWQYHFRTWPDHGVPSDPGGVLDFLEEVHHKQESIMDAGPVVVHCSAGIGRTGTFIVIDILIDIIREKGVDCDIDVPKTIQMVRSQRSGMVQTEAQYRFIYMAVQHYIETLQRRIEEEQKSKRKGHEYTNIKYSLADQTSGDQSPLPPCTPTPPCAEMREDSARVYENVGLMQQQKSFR

SMILES	IC50 [1] [nM]	IC50 [2, 3] [nM]	IC50 [2, 4] [nM]	IC50 [2, 5] [nM]
C#Cc1ccc2c(c1)OC1(CCN(c3cc(=O)n(-c4cccc(Cl)c4Cl)c(C)n3)CC1)[C@@H]2N (atropisomer, axis not shown) [Compound 11]	97	1150		
C#Cc1ccc2c(c1)[C@@H](N)C1(CCN(c3cc(=O)n(-c4cccc(Cl)c4Cl)c(C)n3)CC1)C2 (atropisomer, axis not shown) [Compound 12, (S)-6-(1-amino-6-ethynyl-1,3-dihydrospiro[indene-2,4′-piperidin]-1′-yl)-3-(2,3-dichlorophenyl)-2-methylpyrimidin-4(3H)-one]	1		7	
C#Cc1ccc2c(c1)CC1(CCN(c3cc(=O)n(-c4cccc(Cl)c4Cl)c(C)n3)CC1)[C@@H]2N (atropisomer, axis not shown) [Compound 20]	12	52		
C#Cc1ccc2c(c1)CC1(CCN(c3cc(=O)n(-c4cccc(Cl)c4Cl)c(C)n3)CC1)[C@@H]2N (atropisomer, axis not shown) [Compound 24]	412			
C#Cc1ccc2c(c1)OC1(CCN(c3cc(=O)n(-c4cccc(Cl)c4Cl)c(C)n3)CC1)[C@@H]2N (atropisomer, axis not shown) [Compound 28]	> 1000			
C#Cc1ccc2c(c1)[C@@H](N)C1(CCN(c3nc(C)n(-c4cccc(Cl)c4Cl)c(=O)c3C)CC1)C2 (atropisomer, axis not shown) [Compound 48]	63			231
C#Cc1ccc2c(c1)[C@@H](N)C1(CCN(c3nc(C)n(-c4cccc(Cl)c4Cl)c(=O)c3C)CC1)C2 (atropisomer, axis not shown) [Compound 49]	3			18
Cc1c(N2CCC3(CC2)Cc2ccc(C#CCN(C)C)cc2[C@H]3N)nc(C)n(-c2cccc(Cl)c2Cl)c1=O (atropisomer, axis not shown) [Compound 50]	15			318
Cc1c(N2CCC3(CC2)Cc2ccc(C#CCN(C)C)cc2[C@H]3N)nc(C)n(-c2cccc(Cl)c2Cl)c1=O (atropisomer, axis not shown) [Compound 51]	1			21
C#Cc1ccc2c(c1)[C@@H](N)C1(CCN(c3cc(=O)n(-c4cccc(Cl)c4F)c(C)n3)CC1)C2 (atropisomer, axis not shown) [Compound 65]	2			60
C#Cc1ccc2c(c1)[C@@H](N)C1(CCN(c3cc(=O)n(-c4cccc(Cl)c4F)c(C)n3)CC1)C2 (atropisomer, axis not shown) [Compound 66]	24			271
C#Cc1ccc2c(c1)[C@@H](N)C1(CCN(c3cc(=O)n(-c4ccc(F)c(OC)c4F)c(C)n3)CC1)C2 (atropisomer, axis not shown) [Compound 88]	0.8			26
C#Cc1ccc2c(c1)[C@@H](N)C1(CCN(c3cc(=O)n(-c4ccc(F)c(OC)c4F)c(C)n3)CC1)C2 (atropisomer, axis not shown) [Compound 89]	15			153
C#Cc1ccc2c(c1)[C@@H](N)C1(CCN(c3nc(C)n(-c4ccc(F)cc4Cl)c(=O)c3C)CC1)C2 (atropisomer, axis not shown) [Compound 102]	2			12
C#Cc1ccc2c(c1)[C@@H](N)C1(CCN(c3nc(C)n(-c4ccc(F)cc4Cl)c(=O)c3C)CC1)C2 (atropisomer, axis not shown) [Compound 103]	17			80
C#Cc1ccc2c(c1)[C@@H](N)C1(CCN(c3cc(=O)n(-c4ccc(F)c(Cl)c4Cl)c(C)n3)CC1)C2 (atropisomer, axis not shown) [Compound 108]	1			7

SMILES	IC50 [1] [nM]	IC50 [2, 3] [nM]	IC50 [2, 4] [nM]	IC50 [2, 5] [nM]
C#Cc1ccc2c(c1)[C@@H](N)C1(CCN(c3cc(=O)n(-c4ccc(F)c(Cl)c4Cl)c(C)n3)CC1)C2 (atropisomer, axis not shown) [Compound 109]	118			259
C#Cc1ccc2c(c1)OC1(CCN(c3cc(=O)n(-c4ccc(F)c(F)c4)c(C)n3)CC1)[C@@H]2N [Compound 13]	> 1000			
C#Cc1ccc2c(c1)OC1(CCN(c3nc(C)n(-c4ccc(F)c(F)c4)c(=O)c3C)CC1)[C@@H]2N [Compound 14]	> 1000			
C#Cc1ccc2c(c1)OC1(CCN(c3cc(=O)n(-c4cccc(Cl)c4)c(C)n3)CC1)[C@@H]2N [Compound 18]	> 1000			
C#Cc1ccc2c(c1)OC1(CCN(c3cc(=O)n(-c4ccccc4)c(C)n3)CC1)[C@@H]2N [Compound 19]	> 1000			
C#Cc1ccc2c(c1)CC1(CCN(c3cc(=O)n(-c4ccc(F)c(F)c4)c(C)n3)CC1)[C@@H]2N [Compound 21]	541			
C#Cc1ccc2c(c1)CC1(CCN(c3cc(=O)n(-c4ccc(Cl)cc4)c(C)n3)CC1)[C@@H]2N [Compound 22]	348			
C#Cc1ccc2c(c1)CC1(CCN(c3cc(=O)n(-c4ccccc4)c(C)n3)CC1)[C@@H]2N [Compound 23]	757			
C#Cc1ccc2c(c1)[C@@H](N)C1(CCN(c3cc(=O)n(-c4c(Cl)cccc4Cl)c(C)n3)CC1)C2 [Compound 33]	310			
Cc1nc(N2CCC3(CC2)Cc2ccc(C#CCN(C)C)cc2[C@H]3N)cc(=O)n1-c1cccc(Cl)c1Cl [Compound 52]		37		
C#Cc1ccc2c(c1)[C@@H](N)C1(CCN(c3cc(=O)n(-c4cc(OC)ccc4Cl)c(C)n3)CC1)C2 [Compound 58]				260
C#Cc1ccc2c(c1)[C@@H](N)C1(CCN(c3cc(=O)n(-c4ccc(F)c(F)c4Cl)c(C)n3)CC1)C2 [Compound 77]				56
Cc1nc(N2CCC3(CC2)Cc2ccc(SC4COC4)cc2[C@H]3N)cc(=O)n1-c1cccc(Cl)c1Cl [Compound 81, (S)-6-(1-amino-6-(oxetan-3-ylthio)-1,3-dihydrospiro[indene-2,4′-piperidin]-1′-yl)-3-(2,3-dichlorophenyl)-2-methylpyrimidin-4(3H)-one]			89	
COCC#Cc1ccc2c(c1)[C@@H](N)C1(CCN(c3cc(=O)n(-c4cccc(Cl)c4Cl)c(C(F)(F)F)n3)CC1)C2 [Compound 130]	> 1000			
C#Cc1ccc2c(c1)[C@@H](N)C1(CCN(c3cc(=O)n(-c4cccc(C#N)c4Cl)c(C)n3)CC1)C2 [Compound 267]				> 1000
